Data on 13 compounds can be found in patent US5744485A, “Carbamates and ureas as modifiers of multi-drug resistance” (Vertex Pharmaceuticals Incorporated, priority 1995, dated 1998).

Series [1] concerns L1210 mouse leukemia cells transformed with the pHaMDR1/A retrovirus carrying a MDR1 cDNA (L1210VMDRC.06). Briefly: MDR sensitization assay: reversal of MDR to doxorubicin in L1210VMDRC.06 cells (MTT or XTT viability, 3 days) (Table 1). The conditions noted are these: for MDR Ratio 1.0 μM Cpd. / MDR Ratio (2.5 μM): mouse, l1210vmdrc.06 cells, 72 h. How it is done:
To assay the ability of the compounds according to this invention to increase the antiproliferative activity of a drug, cell lines which are known to be resistant to a particular drug may be used. These cell lines include, but are not limited to, the L1210, P388D, CHO and MCF7 cell lines. Alternatively, resistant cell lines may be developed. The cell line is exposed to the drug to which it is resistant, or to the test compound; cell viability is then measured and compared to the viability of cells which are exposed to the drug in the presence of the test compound.
We have carried out assays using L1210 mouse leukemia cells transformed with the pHaMDR1/A retrovirus carrying a MDR1 cDNA, as described by Pastan et al., Proc. Natl. Acad. Sci., Vol. 85, 4486-4490 (1988). The resistant line, labelled L1210VMDRC.06, was obtained from Dr. M. M. Gottesman of the National Cancer Institute.
Multi-drug resistance assays were conducted by plating cells (2×10^3, 1×10^4, or 5×10^4 cells/well) in 96 well microtiter plates and exposing them to a concentration range of doxorubicin (50 nM-10 μM) in the presence or absence of multi-drug resistance modifier compounds ("MDR inhibitors") of this invention (1, 2.5 or 10 μM) as described in Ford et al., Cancer Res., Vol. 50, 1748-1756. (1990). After culture for 3 days, the viability of cells was quantitated using MTT (Mossman) or XTT dyes to assess mitochondrial function. All determinations were made in replicates of 4 or 8. Also see, Mossman T., J. Immunol. Methods, Vol. 65, 55-63 (1983).
Results were determined by comparison of the IC50 for doxorubicin alone to the IC50 for doxorubicin+MDR inhibitor. An MDR ratio was calculated (IC50 Dox/IC50 Dox+Inhibitor) and the integer value used for comparison of compound potencies.
In general terms: Tetrazolium dyes change colour on reduction, which living cells bring about.

The subject of the next series is HL60/ADR cells. Description: Inhibition of MRP-mediated MDR: reversal of MDR to doxorubicin in HL60/ADR cells (XTT viability, 3 days) (Table 2). The series is classed as cell-based. The conditions noted are these: Homo sapiens, 72 h, read-out: IC50 Dox alone. How it is done: We plated HL60/ADR cells in 96 well microtiter plates (4×10^4 cells/well). The cells were then exposed to various concentrations of doxorubicin (50 nM to 10 μM) in the presence or absence of various compounds of this invention at various concentrations (0.5-10 μM). After culturing the cells for 3 days, their viability was quantitated using the XTT dye method to assess mitochondrial function. Results were expressed as a ratio of the IC50 for doxorubicin alone to the IC50 for doxorubicin plus MDR inhibitor. IC50 values are expressed in nM. In all assays the intrinsic antiproliferative or cytotoxicity activity of the MDR inhibitors was also determined for HL60/ADR cells.

On to `COc1cc(N(C)C(=O)N2CCCC[C@H]2C(=O)OC(CCCc2cccnc2)CCCc2cccnc2)cc(OC)c1OC` [Compound 5, (S)-1-((3,4,5-Trimethoxyphenyl)-methyl-carbamoyl)-piperidine-2-carboxylic acid 4-pyridin-3-yl-1-(3-pyridin-3-yl-propyl)-butyl ester], for which, in series [1], the “MDR Ratio 1.0 μM Cpd.” value is listed as 2.8 and the “MDR Ratio (2.5 μM)” value turned out to be 7.8.
As to `CN(C(=O)N1CCCC[C@H]1C(=O)OC(CCCc1cccnc1)CCCc1cccnc1)c1cccc(C(F)(F)F)c1` [Compound 6, (S)-1-((3-Trifluoromethylphenyl)-methyl-carbamoyl)-piperidine-2-carboxylic acid 4-pyridin-3-yl-1-(3-pyridin-3-yl-propyl)-butyl ester], the “MDR Ratio (2.5 μM)” value in series [1] turned out to be 14.6.
For the compound `CN(C(=O)N1CCCC[C@H]1C(=O)OC(CCCc1cccnc1)CCCc1cccnc1)c1ccc(C(C)(C)C)cc1` [Compound 7, (S)-1-((4-Tert-butylphenyl)-methyl-carbamoyl)-piperidine-2-carboxylic acid 4-pyridin-3-yl-1-(3-pyridin-3-yl-propyl)-butyl ester], in series [1], the “MDR Ratio 1.0 μM Cpd.” value came to 4.0 and the “MDR Ratio (2.5 μM)” value is recorded as 15.4.
The matching figures for `CC(C)c1ccc(N(C)C(=O)N2CCCC[C@H]2C(=O)OC(CCCc2cccnc2)CCCc2cccnc2)cc1` [Compound 8, (S)-1-((4-Isopropylphenyl)-methyl-carbamoyl)-piperidine-2-carboxylic acid 4-pyridin-3-yl-1-(3-pyridin-3-yl-propyl)-butyl ester]: 1.9 and 3.6.
`O=C(OC(CCCc1cccnc1)CCCc1cccnc1)[C@@H]1CCCCN1C(=O)N1CCCCC1` [Compound 9, (S)-1-(Piperidine-1-carbonyl)-piperidine-2-carboxylic acid 4-pyridin-3-yl-1-(3-pyridin-3-yl-propyl)-butyl ester]: in series [1], the “MDR Ratio 1.0 μM Cpd.” value is given as 1.3 and the “MDR Ratio (2.5 μM)” value is reported as 6.9.
The matching figures for `COc1cc(OC(=O)N2CCCC[C@H]2C(=O)OC(CCCc2cccnc2)CCCc2cccnc2)cc(OC)c1OC` [Compound 11, (S)-Piperidine-1,2-dicarboxylic acid 1-(3,4,5-trimethoxyphenyl) ester 2-(4-pyridin-3-yl-1-(3-pyridin-3-yl-propyl)-butyl) ester]: 1.2 and 2.3.
The like results for `COc1cc(N(C)C(=O)N2CCCC[C@H]2C(=O)OC(CCc2ccccc2)CCc2ccccc2)cc(OC)c1OC` [Compound 13, (S)-1-((3,4,5-Trimethoxyphenyl)-methyl-carbamoyl)-piperidine-2-carboxylic acid 1-(2-phenyl-ethyl)-3-phenyl-propyl ester] were, in that order, 3.0 and 11.5.
The matching figures for `CN(C(=O)N1CCCCC1C(=O)OC(CCc1ccccc1)CCc1ccccc1)c1ccc(S(=O)(=O)O)cc1` (stereo not drawn) [Compound 14, 4-(Methyl-(2-(1-phenethyl-3-phenyl-propoxycarbonyl)-piperidine-1-carbonyl)-amino)-benzenesulfonic acid]: 1.9 and 3.6.
With `CN(C(=O)N1CCCC[C@H]1C(=O)OC(COCc1ccccc1)COCc1ccccc1)c1ccc(N2CCOCC2)cc1` [Compound 16, (S)-1-(Methyl-(4-morpholin-1-yl-phenyl)-carbamoyl)-piperidine-2-carboxylic acid 2-benzyloxy-1-(benzyloxy-methyl)-ethyl ester], the “MDR Ratio (2.5 μM)” value in series [1] was found to be 10.7.
On the same count and under the same terms, the result for `CN(C(=O)N1CCCC[C@H]1C(=O)OC(COCc1ccccc1)COCc1ccccc1)c1ccc(N2CCCCC2)cc1` [Compound 17, (S)-1-(Methyl-(4-piperidin-1-yl-phenyl)-carbamoyl)-piperidine-2-carboxylic acid 2-benzyloxy-1-(benzyloxy-methyl)-ethyl ester] reads 10.7; that for `O=C(OC(COCc1ccccc1)COCc1ccccc1)[C@@H]1CCCCN1C(=O)Oc1cccc2ncccc12` [Compound 18, (S)-Piperidine-1,2-dicarboxylic acid 2-(2-benzyloxy-1-(benzyloxymethyl)-ethyl)ester 1-quinolin-5-yl ester], 13.6.
As for `COc1cccc2c1C(=O)c1c(O)c3c(c(O)c1C2=O)C[C@@](O)(C(=O)CO)C[C@@H]3O[C@H]1C[C@H](N)[C@H](O)[C@H](C)O1` [Dox, doxorubicin, reference compound], the concentration for half-maximal inhibition (IC50) – broadly, the point on the concentration scale where inhibition reaches its midpoint – in the series with HL60/ADR cells was 5 µM.
On to “(S)-1-((3,4,5-Trimethoxyphenyl)-methyl-carbamoyl)-piperidine-2-carboxylic acid 4-pyridin-1-yl-1-(3-pyridin-1-yl-propyl)-butyl ester [Compound 10]”, for which the “IC50 Dox + 1 μM Cpd.” value in series [1] (IC50 of doxorubicin in presence of 1 μM compound, L1210VMDRC.06 cells, 3 days) worked out at 400. Further, the “IC50 Dox + 2.5 μM Cpd.” value in series [1] (IC50 of doxorubicin in presence of 2.5 μM compound, L1210VMDRC.06 cells, 3 days) is reported as 85.
